Measurements from patent US8394832B2, “Methods and compositions using immunomodulatory compounds for the treatment of immunodeficiency disorders” (Celgene Corporation, priority 2004, dated 2013).

What was measured:
TNFα = TNFα ELISA of treated B cells; format: cell-based, human; details: activated CD19+ cells (FIG. 4)
Experimental: (§1) Human buffy coat (50 ml) was diluted with 50 ml sterile PBS (Ca^++, Mg^++ free), and mixed gently. A 25 ml aliquot of diluted buffy coat was transferred to each 50 ml centrifuge tube, and Histopaque-1077 (14 ml, #1077-1, Sigma) was gently layered into the bottom of the tube. The sample was centrifuged at 2,000 rpm for 30 min at room temperature. The interface containing mononuclear cells was transferred into 50 ml centrifuge tube, and washed once with PBS (1200 rpm, 5 min). The supernatant was discarded. Cell pellet was resuspended in Miltenyi buffer. Anti-CD19^+ microbeads were added to the suspension (10^7 cells in 80 μl of buffer, 20 μl antibody beads for 10^7 cells) and incubated for 15 min at 4° C. Cell pellet was washed once and resuspended in 1 ml Miltenyi buffer. The cell suspension was added to the magnetic column, washed with 10 ml Miltenyi buffer in the column. CD19^+ cells are released by 1 ml Miltenyi Buffer without magnetic field. CD19^+ cells were washed twice with RPMI complete medium. B cells (2×10^5) were plated in 96 well plate. […]
TNFα levels in 1,3-dioxo-(2,6-dioxopiperidin-3-yl)-4-aminoisoindoline or 1-oxo-(2,6-dioxopiperidin-3-yl)-4-aminoisoindoline treated B cells were determined using TNFα ELISA.

IgE synthesis = assay: IgE ELISA of human PBMC treated with anti CD40 and IL-4 for three weeks; format: cell-based; details: 504 h, human PBMCs in presence of CD40+IL-4 for three weeks (FIGS. 11A and B), read-out: IC50 of inhibition of IgE synthesis
Experimental: Human PBMCs (1×10^6/ml) were treated with immunomodulatory compounds in presence of anti-CD40 (2 ug/ml) and IL-4 (40 ng/ml) for three weeks. Fifty microliter of supernatant was used for IgE ELISA, following the manufacturer's instruction. The absorbance was read by ELISA reader at OD=450 nm.
IL-4 is a unique signal for B cells to produce IgE during the immunoglobulin class switch. To assess whether immunomodulatory compounds can regulated IgE synthesis, 1,3-dioxo-(2,6-dioxopiperidin-3-yl)-4-aminoisoindoline or 1-oxo-(2,6-dioxopiperidin-3-yl)-4-aminoisoindoline was incubated with human PBMCs in presence of CD40+IL-4 for three weeks. […] (FIGS. 11A and B).
Treatment of PBMC: 200 μl of 1×10^6/ml human PBMC were plated in 96 well plate, and the cells were pretreated with IMiDs at indicated concentrations (60, 6, 0.6, 0.06, 0.006, 0.0006 uM) for 30 minutes. Anti CD40 (#AHS4002, Biosource, 2 μg/ml) and IL-4 (#200-04, Pepro Tech, 40 ng/ml) were added to each well. Human PBMC in presence of IMiDs, anti CD40 and IL-4 were incubated for three weeks. Fifty microliters of supernatant was subjected to IgE ELISA.
IgE ELISA: The IgE ELISA Quantitation Kit was purchased from Bethyl Laboratories, Inc. (#E80-108). […] The ELISA plate was read at OD=450 nm in ELISA plate reader.

CD40 = assay: FACS analysis of CD40 expression on B cells; format: cell-based, human
Experimental: as §1
In addition to the suppression of IL-4 induced proliferation, CD40+IL-4 induced HLA-DR expression was also examined. B cells were treated by 1,3-dioxo-(2,6-dioxopiperidin-3-yl)-4-aminoisoindoline with CD40L+IL-4 for 72 hours, and the cell surface expression markers CD40 and HLA-DR were measured by FACS. […]

CD80 = assay: FACS analysis of CD80 expression on B cells; format: cell-based, human; details: normal B cells, 1 μM
Experimental: (§2) Human buffy coat (50 ml) was diluted with 50 ml sterile PBS (Ca^++, Mg^++ free), and mixed gently. A 25 ml aliquot of diluted buffy coat was transferred to each 50 ml centrifuge tube, and Histopaque-1077 (14 ml, #1077-1, Sigma) was gently layered into the bottom of the tube. The sample was centrifuged at 2,000 rpm for 30 min at room temperature. The interface containing mononuclear cells was transferred into 50 ml centrifuge tube, and washed once with PBS (1200 rpm, 5 min). The supernatant was discarded. Cell pellet was resuspended in Miltenyi buffer. Anti-CD19^+ microbeads were added to the suspension (10^7 cells in 80 μl of buffer, 20 μl antibody beads for 10^7 cells) and incubated for 15 min at 4° C. Cell pellet was washed once and resuspended in 1 ml Miltenyi buffer. The cell suspension was added to the magnetic column, washed with 10 ml Miltenyi buffer in the column. CD19^+ cells are released by 1 ml Miltenyi Buffer without magnetic field. CD19^+ cells were washed twice with RPMI complete medium. B cells (2×10^5) were plated in 96 well plate.
B cells were treated with 1 μM 1,3-dioxo-(2,6-dioxopiperidin-3-yl)-4-aminoisoindoline in presence of LPS; CD40 ligand and IL-4; or BAFF for 3 days. The suspension of B cells was washed by PBS once, and incubated with FITC conjugated anti human CD40, PE conjugated anti human CD80, or PerCP-Cy5.5 conjugated anti human HLA-DR for 30 min in the dark. […]

IL-6 = assay: Measurement of cytokine IL-6 by Luminex in B cells; format: cell-based, human
Experimental: as §2
B cells were treated with 1,3-dioxo-(2,6-dioxopiperidin-3-yl)-4-aminoisoindoline at 60 μM, 6 μM, 0.6 μM, 0.06 μM, 0.006 μM and 0.0006 μM in presence of anti IgM, anti CD40 and IL-4 for 3 days. Supernatant (25 μl) was collected and incubated with 25 μl anti IL-6 beads for about 1 hour. […] The plate was read on Bio-Plex instrument (Bio-Rad).

HLA-DR = assay: FACS analysis of HLA-DR expression on B cells; format: cell-based, human
Experimental: as §2
B cells were treated with 1 μM 1,3-dioxo-(2,6-dioxopiperidin-3-yl)-4-aminoisoindoline in presence of LPS; CD40 ligand and IL-4; or BAFF for 3 days. The suspension of B cells was washed by PBS once, and incubated with FITC conjugated anti human CD40, PE conjugated anti human CD80, or PerCP-Cy5.5 conjugated anti human HLA-DR for 30 min in the dark. B cells were subject to FACS analysis using BD FACSAria (BD biosciences).
In addition to the suppression of IL-4 induced proliferation, CD40+IL-4 induced HLA-DR expression was also examined. B cells were treated by 1,3-dioxo-(2,6-dioxopiperidin-3-yl)-4-aminoisoindoline with CD40L+IL-4 for 72 hours, and the cell surface expression markers CD40 and HLA-DR were measured by FACS. […] In contrast, for the B cells that were treated with BAFF, 1,3-dioxo-(2,6-dioxopiperidin-3-yl)-4-aminoisoindoline increased CD40 expression by 60% and HLA-DR expression by 86% (FIG. 11F). The data are consistent with the previous observation that immunomodulatory compounds have no effect on CD40+IL-4 signaling.

[1] = B cells treated with BAFF (FIG. 11F)

For Nc1cccc2c1C(=O)N(C1CCC(=O)NC1=O)C2=O (centres unmarked) [1,3-dioxo-(2,6-dioxopiperidin-3-yl)-4-aminoisoindoline], the “TNFα production in B cells” value (TNFα) was “dose dependently enhance”, the IC50 (IgE synthesis) was 100 to 300 nM and the “increase of CD40 expression” value (CD40; [1]) was 60%. The CD40 expression (CD40; B cells treated with BAFF or LPS, 1 μM, 3 days (FIG. 2A)) was “upregulated”, the “number of B cells expressing CD80” value (CD80; CD40 ligand and IL-4, 3 days (FIG. 1B)) was “increased” and the CD80 expression (CD80; in the presence of CD40 ligand and IL-4, 3 days (FIG. 1A)) was “increased”. For the same compound, the IL-6 expression (IL-6; compound alone (FIG. 5A)) was “did not enhance”, the IL-6 expression (IL-6; in combination with anti IgM, anti CD40 and IL-4, 3 days, 0.0006-60 μM (FIG. 5B)) was “enhanced” and the “increase of HLA-DR expression” value (HLA-DR; [1]) was 86%. The HLA-DR expression (HLA-DR; B cells treated with BAFF or LPS, 1 μM, 3 days (FIG. 2B)) was “upregulated” and the “CD40+IL-4 induced HLA-DR expression” value (HLA-DR; B cells with CD40L+IL-4 for 72 hours (FIG. 11E)) was “no enhancement”.
